{"source": "patent US20220395464A1", "about": "“ORALLY ADMINISTERED SOLID DOSAGE FORM DRUG” (ASCENTAWITS PHARMACEUTICALS, LTD., priority 2019, published 2022)", "key": {"[1]": {"assay": "Solubility study of AST-3424 (shaking at 25° C., HPLC content)", "assay_type": "physicochemical", "details": "methanol, propanol, butanol, ethylene glycol, propylene glycol, glycerol, 1,3-butanediol, 1,2-butanediol; initial investigation"}, "[2]": {"test_system": "H460 non-small cell lung cancer", "assay": "In vitro proliferation inhibition assay, 2 h exposure, Alamar Blue, with or without AKR1C3 inhibitor TH3021", "assay_type": "cell-based, human", "details": "for IC50: 2 h exposure, 70 h further incubation", "method": "The activities of the compounds were evaluated by a proliferation inhibition assay of active cancer cells in vitro.\nIn vitro proliferation data for a human tumor cell line of H460 non-small cell lung cancer were reported in a Table of compounds below.\nIC50 values were in nanomoles and were obtained by the following procedure. Cells were exposed in the compounds with different concentration for 2 hours. Next, the compounds were washed off, and fresh medium was added into plates. Afterwards, a growth rate and a cell-survival rate were obtained by cell staining and compared with a control treated with the medium only.\nSpecifically speaking, the exponentially growing cells were seeded in 96-well plates at a density of 4×10^3 cells/well, and incubated for 24 hours at 37° C. in 5% CO2, 95% air and 100% relative humidity. Next, the compounds were added. Complementary, the compounds were dissolved in 100% DMSO at 200 times a desired final test concentration. The compounds were further diluted to 4 times the desired final test concentration with complete medium when the drug was added. A 50 μl aliquot of drug with the specific concentrations of the compounds was added to the 96-well plates already containing 150 μl of medium respectively to get the final test concentration reported. After the drug was added, the 96-well plates were incubated for 2 hours at 37° C. in 5% CO2, 95% air and 100% relative humidity. Then, the drug was washed off, and the 96-well plates were incubated for 70 hours at 37° C. in 5% CO2, 95% air and 100% relative humidity after adding the fresh medium. At the end of this incubation, Alamar Blue assay was used to quantify viable cells. The concentrations of the drug causing 50% growth inhibition (IC50) were calculated using computer software, and results are presented in a table below.\nA cancer cell proliferation activity of the compounds with or without AKR1C3 enzyme inhibition was measured with and without adding TH3021 (with a sufficient inhibitory concentration), an inhibitor of AKR1C3."}}, "data": [{"smiles": "C[C@H](OP(=O)(N1CC1)N1CC1)c1ccc([N+](=O)[O-])c(Oc2cccc(C(=O)N(C)C)c2)c1", "note": "[AST-3424, (S)-1-(3-(3-N,N-Dimethylaminocarbonyl)phenoxy-4-nitrophenyl)-1-ethyl-N,N′-bis(ethylene) phosphoramidate]", "values": [{"measurement": "Solubility, in words", "setting": "[1]", "value": "good solubility"}]}, {"smiles": "[2H]C([2H])([2H])N(C(=O)c1cccc(Oc2cc([C@H](C)OP(=O)(N3CC3)N3CC3)ccc2[N+](=O)[O-])c1)C([2H])([2H])[2H]", "note": "[AST-3424-D6]", "values": [{"measurement": "IC50", "setting": "[2]; H460, + TH3021 (inhibitor of AKR1C3)", "value": 165, "unit": "nM"}, {"measurement": "In vitro activity compared with AST-3424, in words", "setting": "[2]; H460, FIG. 1 and Table 12", "value": "similar"}, {"measurement": "IC50", "setting": "[2]; Homo sapiens, NCI-H460, H460, + TH3021 (inhibitor of AKR1C3)", "value": 109, "unit": "nM"}, {"measurement": "IC50", "setting": "[2]; Homo sapiens, NCI-H460, H460, without TH3021", "value": "< 4.57", "unit": "nM"}]}]}
